According to ChEMBL document CHEMBL6120979, “Cell penetrable peptide nucleic acids targeting PDZK1IP1 with anti-inflammatory potential in human keratinocytes” (Bioorg Med Chem Lett, 2025):
Active and inactive are the calls of the source. The rule behind the calls is not given here.

Assays:
RNA [1] = assay: Binding affinity to complementary RNA (unknown origin) with mismatch bases in sodium phosphate buffer; type: nucleic-acid assay
RNA [2] = assay: Binding affinity to complementary RNA (unknown origin) in sodium phosphate buffer assessed as melting temperature of PNA-RNA duplex; type: nucleic-acid assay

| Activity (RNA [1]) | Tm (RNA [2]) [°C] | SMILES |
| --- | --- | --- |
| inactive |  | Cc1cn(CC(=O)N(CCNC(=O)CN(CCNC(=O)CN(CCNC(=O)CN(CCNC(=O)CN(CCNC(=O)CN(CCN)C(=O)Cn2ccc(N)nc2=O)C(=O)Cn2cnc3c(N)nc(NCCCCCN)nc32)C(=O)Cn2cnc3c(=O)[nH]c(N)nc32)C(=O)Cn2cnc3c(=O)[nH]c(N)nc32)C(=O)Cn2cc3cc(COCCN)[nH]c3nc2=O)CC(=O)NCCN(CC(=O)NCCN(CC(=O)NCCN(CC(=O)NCCN(CC(=O)NCCN(CC(=O)NCCN(CC(=O)NCCN(CC(=O)NCCN(CC(=O)O)C(=O)Cn2cnc3c(=O)[nH]c(NCCCCCCN)nc32)C(=O)Cn2cnc3c(=O)[nH]c(N)nc32)C(=O)Cn2cnc3c(=O)[nH]c(N)nc32)C(=O)Cn2cnc3c(=O)[nH]c(NCCCCCCN)nc32)C(=O)Cn2cc(C)c(=O)[nH]c2=O)C(=O)Cn2cc3cc(COCCN)[nH]c3nc2=O)C(=O)Cn2ccc(N)nc2=O)C(=O)Cn2ccc(N)nc2=O)c(=O)[nH]c1=O |
| inactive | 80.4 | Cc1cn(CC(=O)N(CCNC(=O)CN(CCNC(=O)CN(CCNC(=O)CN(CCNC(=O)CN(CCNC(=O)CN(CCNC(=O)CN(CCNC(=O)CN(CCNC(=O)CN(CCNC(=O)CN(CCNC(=O)CN(CCNC(=O)CN(CCNC(=O)CN(CCNC(=O)CN(CCN)C(=O)Cn2cc(C)c(=O)[nH]c2=O)C(=O)Cn2ccc(N)nc2=O)C(=O)Cn2cnc3c(N)nc(NCCCCCN)nc32)C(=O)Cn2cc3cc(COCCN)[nH]c3nc2=O)C(=O)Cn2cnc3c(=O)[nH]c(N)nc32)C(=O)Cn2cnc3c(=O)[nH]c(NCCCCCCN)nc32)C(=O)Cn2ccc(N)nc2=O)C(=O)Cn2cc(C)c(=O)[nH]c2=O)C(=O)Cn2cc3cc(COCCN)[nH]c3nc2=O)C(=O)Cn2ccc(N)nc2=O)C(=O)Cn2cc(C)c(=O)[nH]c2=O)C(=O)Cn2ccc(N)nc2=O)C(=O)Cn2cc3cc(COCCN)[nH]c3nc2=O)CC(=O)O)c(=O)[nH]c1=O |
| inactive | 78.1 | Cc1cn(CC(=O)N(CCNC(=O)CN(CCNC(=O)CN(CCN)C(=O)Cn2ccc(N)nc2=O)C(=O)Cn2ccc(N)nc2=O)CC(=O)NCCN(CC(=O)NCCN(CC(=O)NCCN(CC(=O)NCCN(CC(=O)NCCN(CC(=O)NCCN(CC(=O)NCCN(CC(=O)NCCN(CC(=O)NCCN(CC(=O)NCCN(CC(=O)NCCN(CC(=O)O)C(=O)Cn2cnc3c(=O)[nH]c(N)nc32)C(=O)Cn2cnc3c(N)ncnc32)C(=O)Cn2cc3cc(COCCN)[nH]c3nc2=O)C(=O)Cn2ccc(N)nc2=O)C(=O)Cn2cnc3c(N)nc(NCCCCCN)nc32)C(=O)Cn2ccc(N)nc2=O)C(=O)Cn2cnc3c(=O)[nH]c(N)nc32)C(=O)Cn2cnc3c(=O)[nH]c(NCCCCCCN)nc32)C(=O)Cn2cc(C)c(=O)[nH]c2=O)C(=O)Cn2ccc(N)nc2=O)C(=O)Cn2cc3cc(COCCN)[nH]c3nc2=O)c(=O)[nH]c1=O |
| inactive | 81 | Cc1cn(CC(=O)N(CCNC(=O)CN(CCNC(=O)CN(CCNC(=O)CN(CCNC(=O)CN(CCNC(=O)CN(CCNC(=O)CN(CCNC(=O)CN(CCNC(=O)CN(CCN)C(=O)Cn2cnc3c(N)nc(NCCCCCN)nc32)C(=O)Cn2ccc(N)nc2=O)C(=O)Cn2cnc3c(=O)[nH]c(N)nc32)C(=O)Cn2cnc3c(=O)[nH]c(NCCCCCCN)nc32)C(=O)Cn2ccc(N)nc2=O)C(=O)Cn2cc(C)c(=O)[nH]c2=O)C(=O)Cn2cc3cc(COCCN)[nH]c3nc2=O)C(=O)Cn2ccc(N)nc2=O)CC(=O)NCCN(CC(=O)NCCN(CC(=O)NCCN(CC(=O)NCCN(CC(=O)NCCN(CC(N)=O)C(=O)Cn2cnc3c(=O)[nH]c(N)nc32)C(=O)Cn2cnc3c(=O)[nH]c(NCCCCCCN)nc32)C(=O)Cn2cc(C)c(=O)[nH]c2=O)C(=O)Cn2ccc(N)nc2=O)C(=O)Cn2cc3cc(COCCN)[nH]c3nc2=O)c(=O)[nH]c1=O |
